Our source for the MIC values is US20230086865A1, “ANTI-INFECTIVE BICYCLIC PEPTIDE CONJUGATES” (priority 2020, published 2023).

One experiment deals with A. baumannii AR0275. As to the kind of experiment: MIC follow-on study. The class given is cell-based. Conditions: Acinetobacter baumannii. The method, then:
(§1) Minimum inhibitory concentration (MIC) assays were carried out using E. coli strains: GKCW101; GKCW102 and ATCC25922 using the method described by Antimicrobial Agents and Chemotherapy December 2016 Volume 60 Number 12 pages 7372-7381 and CLSI, 2020. Performance standards for antimicrobial susceptibility testing. Clinical Lab Standards Institute.
(§2) As a follow-on study, the MIC of BCY13246 was measured against a range of bacterial targets and compared with the MIC for the constituent bicyclic peptide ([…]) and carrier peptide ([…]) alone along with existing anti-microbial agents meropenem and levofloxacin. […].

A further experiment has as its system C. freundii AR0116. Put plainly: MIC follow-on study. The class given is cell-based. Conditions: Citrobacter freundii. As for the experimental part: as §1, §2
In another experiment the test system is E. cloacae AR0032. Put plainly: MIC follow-on study. The class given is cell-based. As to conditions: Enterobacter cloacae. The method, then: as §1, §2
The next experiment has as its system E. cloacae AR0038. As to the kind of experiment: MIC follow-on study. The class given is cell-based. Conditions: Enterobacter cloacae. As for the experimental part:
as §1, §2

The next experiment deals with E. cloacae KPC114. Put plainly: MIC follow-on study. The class given is cell-based. As to conditions: Enterobacter cloacae. As for the experimental part:
as §1, §2

In a further experiment the test system is E. coli ATCC BAA-2469. As to the kind of experiment: MIC follow-on study. It is filed as cell-based. Conditions: Escherichia coli, ATCCBAA2469. As for the experimental part:
as §1, §2

In another experiment the test system is E. coli NCTC 13441. Put plainly: MIC follow-on study. It is filed as cell-based. As to conditions: Escherichia coli, NCTC13441. The method, then: as §1, §2
In experiment [1] the test system is K. pneumoniae ATCC 700603. As to the kind of experiment: MIC follow-on study. It is filed as cell-based. Conditions: Klebsiella pneumoniae, ATCC700603. The method, then: as §1, §2
In another experiment the test system is K. pneumoniae KPNIH1. As to the kind of experiment: MIC follow-on study. It is filed as cell-based. Conditions: Klebsiella pneumoniae. As for the experimental part: as §1, §2
The next experiment concerns P. mirabilis AR159. Put plainly: MIC follow-on study. The class given is cell-based. As to conditions: Proteus mirabilis. As for the experimental part:
as §1, §2

In a further experiment the test system is E. coli UTI89. As to the kind of experiment: MIC follow-on study. Conditions: Escherichia coli.
The test system of the next experiment is K. pneumoniae ATCC 43816. Put plainly: MIC follow-on study. Conditions: Klebsiella pneumoniae, ATCC43816.
Another experiment deals with K. pneumoniae B454. Put plainly: MIC follow-on study. As to conditions: Klebsiella pneumoniae.
The test system of the next experiment is E. cloacae B173. Put plainly: MIC follow-on study. As to conditions: Enterobacter cloacae.
The next experiment has as its system P. mirabilis ATCC 43071. Put plainly: MIC follow-on study. As to conditions: Proteus mirabilis, ATCC43071.
The next experiment relates to C. freundii B121. As to the kind of experiment: MIC follow-on study. Conditions: Citrobacter freundii.
A further experiment concerns A. baumannii NCTC 12156. As to the kind of experiment: MIC follow-on study. Conditions: Acinetobacter baumannii, NCTC12156.
The test system of another experiment is E. coli ATCC25922. As to the kind of experiment: Minimum inhibitory concentration (MIC) assay. Conditions: Escherichia coli.
The next experiment deals with P. aeruginosa NCTC 13437. Put plainly: MIC follow-on study. The class given is cell-based. Conditions: Pseudomonas aeruginosa, NCTC13437. As for the experimental part: as §1, §2
The test system of the next experiment is P. aeruginosa ATCC 27853. Put plainly: MIC follow-on study. As to conditions: Pseudomonas aeruginosa, ATCC27853.

≈ marks a conversion by molar mass, not a printed value.

For `C[C@H]1COc2c(N3CCN(C)CC3)c(F)cc3c(=O)c(C(=O)O)cn1c23` [Levofloxacin, levofloxacin], the MIC against A. baumannii AR0275 was above 2 µg/mL; in the experiment with C. freundii AR0116 it was above 2 µg/mL; with E. cloacae AR0032 it was 0.5 µg/mL (≈ 1.38 µM); in the experiment on E. cloacae AR0038 it was above 2 µg/mL; against E. cloacae KPC114, 0.5 µg/mL (≈ 1.38 µM); in the experiment with E. coli ATCC BAA-2469, above 2 µg/mL. The MIC in the experiment on E. coli NCTC 13441 was above 2 µg/mL; in [1] it was 0.5 µg/mL (≈ 1.38 µM); against K. pneumoniae KPNIH1 it was above 2 µg/mL; in the experiment on P. mirabilis AR159 it was 2 µg/mL (≈ 5.53 µM); with E. coli UTI89, 0.03 µg/mL (≈ 0.083 µM); against K. pneumoniae ATCC 43816 it was 0.06 µg/mL (≈ 0.166 µM). The MIC in the experiment with K. pneumoniae B454 was above 2 µg/mL; against E. cloacae B173 it was 0.03 µg/mL (≈ 0.083 µM); in the experiment with P. mirabilis ATCC 43071, 0.06 µg/mL (≈ 0.166 µM); against C. freundii B121, 0.25 µg/mL (≈ 0.692 µM); in the experiment on A. baumannii NCTC 12156 it was 0.25 µg/mL (≈ 0.692 µM); in the experiment on E. coli ATCC25922, 0.016 µg/mL (≈ 0.0443 µM).
On to `C[C@@H](O)[C@H]1C(=O)N2C(C(=O)O)=C(S[C@@H]3CN[C@H](C(=O)N(C)C)C3)[C@H](C)[C@H]12` [Meropenem, meropenem], for which the MIC in the experiment with A. baumannii AR0275 was above 2 µg/mL; against C. freundii AR0116, above 2 µg/mL; in the experiment on E. cloacae AR0032, 0.25 µg/mL (≈ 0.652 µM); against E. cloacae AR0038, above 2 µg/mL; against E. cloacae KPC114, above 2 µg/mL; in the experiment on E. coli ATCC BAA-2469, above 2 µg/mL. In addition, the MIC is 0.016 µg/mL (≈ 0.0417 µM) against E. coli NCTC 13441; 0.03 µg/mL (≈ 0.0782 µM) in experiment [1]; above 2 µg/mL against K. pneumoniae KPNIH1; above 2 µg/mL with P. aeruginosa NCTC 13437; above 2 µg/mL against P. mirabilis AR159; 0.016 µg/mL (≈ 0.0417 µM) against E. coli UTI89. For the same compound, the MIC is 0.03 µg/mL (≈ 0.0782 µM) against K. pneumoniae ATCC 43816; 0.03 µg/mL (≈ 0.0782 µM) against K. pneumoniae B454; 0.03 µg/mL (≈ 0.0782 µM) against E. cloacae B173; 0.06 µg/mL (≈ 0.156 µM) with P. mirabilis ATCC 43071; 0.03 µg/mL (≈ 0.0782 µM) in the experiment with C. freundii B121; 0.5 µg/mL (≈ 1.3 µM) against P. aeruginosa ATCC 27853. For the same compound, the values for the MIC in the experiment on A. baumannii NCTC 12156 and against E. coli ATCC25922 were 1 µg/mL (≈ 2.61 µM) and 0.016 µg/mL (≈ 0.0417 µM), respectively.
